The numbers were not newly measured in patent publication US20150072881A1 (priority 2010, published 2015), which cites them from elsewhere.

The subject of series [1] is genes (and gene products, eg., mRNA or protein). The settings on record: in vivo.
The subject of another series is dopamine. The settings on record: directly or indirectly.
For series [2], the system named is opiate receptor-like 1 (OPRL-1). The settings on record: amygdala of alcoholics.
Another series has as its system pronociceptin (PNOC). The settings on record: hippocampus of alcoholics.
Another series has as its system Pomc. Conditions: anterior pituitary cell line.
In series [3] the test system is Leptin receptor expression in VTA.
The test system of series [4] is PC12 clonal cell line from chromaffin adrenal cells.
The subject of another series is Sgk1. Conditions: Western blotting; morphine-induced. On the technique in general: Immunoblotting shows a protein as a band on a membrane.
In another series the test system is Tsc22d3. The settings on record: Western blotting; drug-regulated gene.

Entries after “also recorded” stand apart in the source; their conditions may differ. Ends that are not written are not given here.

Regarding “Substance P (RPKPQQFFGLM; not fully specified (C-terminus); ends and bridges not checked; UniProt P20366 58-68, looked up)”, the mRNA decrease result in series [1] is “D2 receptor in nucleus accumbens and frontal cortex [1]”.
Consider `CC(N)Cc1ccc(Cl)cc1` (stereo not drawn) [para-chloroamphetamine], for which, in series [1], the mRNA decrease result is “[1] repeated stress in pre-treated rats led to downregulation of BDNF mRNA” and the mRNA increase entry was “[1] repeated stress in pre-treated animals led to less”.
As to `Nc1ncnc2c1ncn2[C@@H]1O[C@@H]2COP(O)(=S)O[C@H]2[C@H]1O` (single isomer, unassigned) [Rp-cAMPS, adenosine-3′,5′ cyclinc monophosphorothioate, Rp-isomer], the “blockade of substance-induced mRNA increase” value in [1] was “CART - effect attenuated by inhibition of PKA with H89 [N-(2-”.
Turning to `CC(C)C[C@H](N)C(=O)O` [Leucine], the mRNA decrease entry in series [1] was “FTO in hypothalamus of rodents [1]”.
Take `CCCN(CCC)C1Cc2cc(OC)c(OC)cc2C1` [U99194A]: the mRNA increase result in series [1] was “c-fos (similar pattern to that produced by d-amphetamine) in”.
On to `CCO` [ethanol], for which the “effect on dopamine release or re-uptake” value in the series on dopamine is “enhance release or block re-uptake of dopamine”. For the same compound, in series [2], the “opiate receptor-like 1 (OPRL-1) mRNA decrease” value was “opiate receptor-like 1 (OPRL-1) 1.4-fold in amygdala of alcoholics [2]”. Further, in the series on pronociceptin (PNOC), the “pronociceptin (PNOC) mRNA decrease” value is recorded as “pronociceptin (PNOC), 1.7-fold in hippocampus of alcoholics”.
For `CCCCCCC(C)(C)c1ccc([C@@H]2C[C@H](O)CC[C@H]2CCCO)c(O)c1` [CP-55,940], the mRNA increase entry in [1] was “Increased Penk in NAc and CPu, Tu and Pir, HPT (both PVN”.
For the compound `CN[C@@H](C)Cc1ccccc1` [Methamphetamine], the mRNA increase result in [1] was “Pdyn in HPT [1]; also recorded: Increased TNF-alpha in normal animals [2]”.
On to `N[C@@H]1C[C@H]1c1ccccc1` (racemic) [Tranylcypromine], for which the mRNA increase result in [1] is on record as “dopamine D3 receptor mRNA in shell of the nucleus accumbens”.
For `C[C@@H]1NCCc2cc(O)c(O)cc21` [S(−)-salsolinol], the “cAMP level / production” value in the series with cAMP is listed as “Decrease in cAMP level occurs after treatment with S(−)-SAL,”. Further, the mRNA decrease result in the series with Pomc was “POMC anterior pituitary cell line [1]”.
In the case of `CC(=O)Oc1ccc2c3c1O[C@H]1[C@@H](OC(C)=O)C=C[C@H]4[C@@H](C2)N(C)CC[C@@]341` [Heroin], in series [1], the mRNA decrease entry is “DAT in paranigral nucleus and mesolimbic division of the ventral tegmental; also recorded: area. Reduction of Nurr1expression with age in heroin users [2]; also recorded: tyrosine hydroxylase in mesolimbic dopamine neurons [3]”; the mRNA increase result was “heroin abuse. Express higher Penk mRNA [1]; also recorded: TH and alpha synuclein in VTA PN in heroin users with no; also recorded: Penk; NAc PENK in Met/Met (control) heroin abusers [3]”.
As for `CN(C)CCCN1c2ccccc2CCc2ccccc21` [Imipramine], the mRNA increase result in series [1] is “dopamine D3 receptor mRNA in shell of the nucleus accumbens;”.
On to “Leptin: Leptin administered directly to VTA”, for which, in series [3] (VTA), the firing rate result is given as “reduction” and the “intracellular JAK-STAT pathway” value is given as “activates”. In addition, the food intake entry in series [3] (direct administration to VTA) is reported as “Direct administration of leptin to VTA caused decreased food intake while”.
On to `Cl.O=S(=O)(NCCNCC=Cc1ccc(Br)cc1)c1cccc2cnccc12` [H89, N-(2-[p-bromocinnamylamino]ethyl)-5-isoquinoline-sulfonamide hudrochloride], for which, in series [1], the “blockade of substance-induced mRNA increase” value was “CART - effect attenuated by inhibition of PKA with H89 [N-(2-”.
`Cc1c(C(=O)NN2CCCCC2)nn(-c2ccc(Cl)cc2Cl)c1-c1ccc(Cl)cc1` [SR 141716A]: the “inhibition of THC-induced MAPK/ERK activation” value with MAPK/ERK (in vivo) is listed as “accumbens. This activation is totally inhibited by selective”.
`CCCCCCCCCC(=O)O[C@H]1CC[C@H]2[C@@H]3CCC4=CC(=O)CC[C@@H]4[C@H]3CC[C@]12C` [Nandrolone decanoate]: in series [1], the mRNA decrease entry was “Dopamine D(1)-receptor subtype in the caudate putamen and nucleus”; the mRNA increase result was “Dopamine D(2) receptor at the lowest doeses in the caudate”.
Consider `CN1CCCC1c1cccnc1` (stereo not drawn) [nicotine], for which the mRNA decrease result in series [4] is “Dopamine D2 receptor and tyrosine hydroxylase in PC12 clonal cell line”. In addition, the “effect on dopamine release or re-uptake” value in the series on dopamine is “enhance release or block re-uptake of dopamine”. Further, in [1], the mRNA decrease result is “POMC in MBH which was observed after 21 days of spontaneous; also recorded: withdrawl from nicotine; Pdyn in ventral shell of NAc [1]” and the mRNA increase entry is “Mu receptors in VTA; POMC in Arc; POMC in AL of the; also recorded: pituitary; Pdyn in CPu after nicotine withdrawl; Pdvn in HPT [1]; also recorded: c-fos in bed nucleus of stria terminalis, nucleus accumbens shell; also recorded: CREB phosphorylation when exposed to situation where; also recorded: MOR expression [4]; also recorded: c fos in limbic regions of adolescents [5]”.
Consider `CN1CC[C@]23c4c5ccc(O)c4O[C@H]2[C@@H](O)C=C[C@H]3[C@H]1C5` [morphine], for which the “level of the Sgk1 protein (significant decrease)” value with Sgk1 was 0.75 fold. Further, the “Tsc22d3 protein level (increase)” value in the series with Tsc22d3 is “approximately 1.5 fold”.
In the case of `CC(N)Cc1ccccc1` (stereo not drawn) [Amphetamine], in series [1], the mRNA decrease result is “Penk in CeA and anterior medial CPu [1]; also recorded: GluR1 in nucleus acumbens shell, GluR2 in core and shell [3]”; the mRNA increase entry is “Penk in frontal cortex; Pdyn in AMG [1]; also recorded: mGluR8 in rat dorsal and ventral striatum, as well as cortex,; also recorded: After 3 days of withdrawl, GluR1 in PFC [3]; also recorded: Mu receptors in VTA; Pdyn in CPu and NAc [1]”.
Turning to `CN(C)CCC=C1c2ccccc2CCc2ccccc21` [Amitriptyline], the mRNA increase result in series [1] was “dopamine D3 receptor mRNA in shell of the nucleus accumbens;; also recorded: D1 and D2 receptors [1]”.
With `CNCCCN1c2ccccc2CCc2ccccc21` [Desipramine], the mRNA increase result in series [1] is reported as “dopamine D3 receptor mRNA in shell of the nucleus accumbens”.
Turning to `CCCCC/C=C\C/C=C\C/C=C\C/C=C\CCCC(=O)N[C@H](C)CO` [R-methanandamide], in series [1], the mRNA increase result was “Increased Penk in NAc and CPu, Tu and Pir, HPT (both PVN”.
On to `CCN1CCC[C@H]1CNC(=O)c1c(O)c(Cl)cc(Cl)c1OC` [raclopride], for which the “blockade of substance-induced mRNA increase” value in series [1] is “Cart in nucleus accumbens (effect blocked by both SCH-”.
Regarding `COc1ccc2c(c1)[C@]13CCCC[C@@H]1[C@H](C2)N(C)CC3` [Dextromethorphan], the mRNA increase in series [1] is listed as 40 mg/kg ip in rats caused increase of tyrosine hydroxylase (TH).
Regarding `CCCCCc1cc(O)c2c(c1)OC(C)(C)[C@@H]1CCC(C)=C[C@@H]21` [THC, Delta-tetrahydrocannabinol], in the series on dopamine, the “effect on dopamine release or re-uptake” value is given as “enhance release or block re-uptake of dopamine”. The “activation (phosphorylation) of MAPK/ERK” value in the series with MAPK/ERK (dorsal striatum and nucleus accumbens) was “THC induces a progressive and transient activation”. Moreover, the mRNA increase entry in series [1] was “Increased Penk in NAc and CPu, Tu and Pir, HPT (both PVN; also recorded: BDNF in reward center (nucleus accumbens, medial prefrontal”.
As for `CC1NCCc2cc(O)c(O)cc21` (stereo not drawn) [R (+)- salsolinol], the “cAMP level / production” value with cAMP is “whereas R(+)- SAL does not affect cAMP production [1]”. Besides, the mRNA decrease entry in the series with Pomc is “POMC anterior pituitary cell line [1]”.
